Reference: patent US20240150848A1, “METHODS AND SYSTEMS FOR DIAGNOSIS, CLASSIFICATION, AND TREATMENT OF SMALL CELL LUNG CANCER AND OTHER HIGH-GRADE NEUROENDOCRINE CARCINOMAS” (BOARD OF REGENTS, THE UNIVERSITY OF TEXAS SYSTEM, priority 2021, published 2024)

Test system: SCLC-A and SCLC-N cell lines
Experiment: Comparison of IC50 values between cell lines assigned to SCLC-A and SCLC-N by the methylation classifier (SCLC-DMC)
Format: cell-based
Excerpt: FIGS. 22A-22D show comparison of IC50 values for the BCL2i ABT-737 (FIG. 22A) and the AURKi CYC-116 (FIG. 22B) between cell lines assigned to SCLC-A and SCLC-N using SCLC-DMC. Clinical outcome depending on classification method used. Overall survival of ES-SCLC patients stratified by classification using the RNAseq signature or SCLC-DMC for SCLC-A (FIG. 22C) and SCLC-N(FIG. 22D). The box plot is highlighting the median as well as the 25th and 75th percentile in the box extended by 1.5× the IQR with bars. […] To validate that these same vulnerabilities are preserved using the methylation classifier (FIG. 30), the inventors compared IC50 values for over 400 drugs^24 between methylation-assigned SCLC-A and SCLC-N subtypes and identified numerous distinct vulnerabilities between the groups.

Structure (SMILES)	sensitivity by comparison of IC50 values (methylation-assigned SCLC-A cell lines compared with SCLC-N cell lines (FIG. 22A))	sensitivity by comparison of IC50 values (methylation-assigned SCLC-N cell lines compared with SCLC-A cell lines (FIG. 22B))
CN(C)CC[C@H](CSc1ccccc1)Nc1ccc(S(=O)(=O)NC(=O)c2ccc(N3CCN(Cc4ccccc4-c4ccc(Cl)cc4)CC3)cc2)cc1[N+](=O)[O-] [ABT-737]	more sensitive	–
Cc1nc(N)sc1-c1ccnc(Nc2ccc(N3CCOCC3)cc2)n1 [CYC-116]	–	more sensitive
